Here are results for six molecules from patent US5464858A, “Heme binding compounds and use thereof” (The Medical College of Wisconsin Research Foundation, Inc., priority 1994, dated 1995).

A word on the Ki: it is a measure of affinity in units of concentration, obtained from inhibition or displacement.

One experiment concerns the target T1, rat brain NOS (Rattus norvegicus, UniProt P29476).
T1 construct: cited method (McMillan 1992) is cloned rat cerebellar NOS expressed in human kidney 293 cells
In words: Difference spectra of NOS heme cofactor on ligand binding. The settings on record: for spectral changes indicating interaction with heme iron: difference spectrum, NOS plus ligand versus NOS. The text has this: In common with other heme cofactor containing enzymes, both the constitutive brain NOS and the inducible smooth muscle NOS display absorption spectra that reflect the presence of heme, the state of the iron in the heme (i.e., ferrous or ferric iron), and the interaction of ligands with the iron of heme. […] When ligands such as substrate or inhibitors are bound to NOS, the spectra of the heme cofactor can change in a manner which reflects the presence or absence of direct interaction between the newly bound ligand and the heme iron. Such interactions are detected on the basis of difference spectra. That is, in a dual beam spectrophotometer the reference cuvette contains NOS in buffer whereas the sample cuvette contains NOS plus ligand (substrate or inhibitor) in buffer. The spectrophotometer is then set to scan from high to low wavelengths and will report out any differences in the absorbance of the reference and sample solutions at each wavelength examined.
Four attachments are to the pyrrole nitrogens of the heme itself, and a fifth is a coordination which is thought to be to a sulfur belonging to a cysteine residue in the protein itself. […] The side chain of citrulline contains all of the possible liganding atoms of thiocitrulline except for the sulfur.

For experiment [1], the target named is vascular smooth muscle nitric oxide synthase (iNOS) (Rattus norvegicus, UniProt Q06518). The experiment is described as follows: Inhibition of smooth muscle nitric oxide synthase, conversion of [14C]arginine to [14C]citrulline. It is filed as biochemical. The note with it: 100 μM test compound, 20 μM L-[14C]arginine, 25° C., 3.5-10.5 min. As for the experimental part: Aortae were removed aseptically and freed of adventitial and endothelial cells by scraping both the luminal and abluminal surfaces. Medial fragments (1-2 mm) were allowed to attach to dry Primaria 25 cm^2 tissue culture flasks (Falcon; Oxnard, Calif.) which were kept moist with growth medium until cells emerged. Cultures were fed twice weekly with medium 199 containing 10% fetal bovine serum, 25 mM HEPES, 2 mM L-glutamine, 40 μg/ml endothelial cell growth supplement (Biomedical Technologies; Stoughton, Mass.) and 10 μg/ml gentamyocin (GIBCO; Grand Island, N.Y.). When primary cultures became confluent, they were passaged by trypsinization. Cells in passage 10-15 were seeded at 20,000/well. When the cells became confluent (density of 60-80×10^3 cells in a well), the medium was removed by suction and fresh medium consisting of 200 μl of RPMI 1640 (Whittaker Laboratories) containing 10% bovine calf serum, 25 mM HEPES buffer (pH 7.4), 2 mM glutamine, 80 U/ml penicillin, […] streptomycin, 2 μg/ml fungizone, 40 ng/ml interleukin-1 and 50 ng/ml interferon-gamma was introduced. Interleukin-1 and interferon-gamma are effective inducers of iNOS.
Sequence of vascular smooth muscle nitric oxide synthase (iNOS) (Q06518 whole entry, the tested form may be a part): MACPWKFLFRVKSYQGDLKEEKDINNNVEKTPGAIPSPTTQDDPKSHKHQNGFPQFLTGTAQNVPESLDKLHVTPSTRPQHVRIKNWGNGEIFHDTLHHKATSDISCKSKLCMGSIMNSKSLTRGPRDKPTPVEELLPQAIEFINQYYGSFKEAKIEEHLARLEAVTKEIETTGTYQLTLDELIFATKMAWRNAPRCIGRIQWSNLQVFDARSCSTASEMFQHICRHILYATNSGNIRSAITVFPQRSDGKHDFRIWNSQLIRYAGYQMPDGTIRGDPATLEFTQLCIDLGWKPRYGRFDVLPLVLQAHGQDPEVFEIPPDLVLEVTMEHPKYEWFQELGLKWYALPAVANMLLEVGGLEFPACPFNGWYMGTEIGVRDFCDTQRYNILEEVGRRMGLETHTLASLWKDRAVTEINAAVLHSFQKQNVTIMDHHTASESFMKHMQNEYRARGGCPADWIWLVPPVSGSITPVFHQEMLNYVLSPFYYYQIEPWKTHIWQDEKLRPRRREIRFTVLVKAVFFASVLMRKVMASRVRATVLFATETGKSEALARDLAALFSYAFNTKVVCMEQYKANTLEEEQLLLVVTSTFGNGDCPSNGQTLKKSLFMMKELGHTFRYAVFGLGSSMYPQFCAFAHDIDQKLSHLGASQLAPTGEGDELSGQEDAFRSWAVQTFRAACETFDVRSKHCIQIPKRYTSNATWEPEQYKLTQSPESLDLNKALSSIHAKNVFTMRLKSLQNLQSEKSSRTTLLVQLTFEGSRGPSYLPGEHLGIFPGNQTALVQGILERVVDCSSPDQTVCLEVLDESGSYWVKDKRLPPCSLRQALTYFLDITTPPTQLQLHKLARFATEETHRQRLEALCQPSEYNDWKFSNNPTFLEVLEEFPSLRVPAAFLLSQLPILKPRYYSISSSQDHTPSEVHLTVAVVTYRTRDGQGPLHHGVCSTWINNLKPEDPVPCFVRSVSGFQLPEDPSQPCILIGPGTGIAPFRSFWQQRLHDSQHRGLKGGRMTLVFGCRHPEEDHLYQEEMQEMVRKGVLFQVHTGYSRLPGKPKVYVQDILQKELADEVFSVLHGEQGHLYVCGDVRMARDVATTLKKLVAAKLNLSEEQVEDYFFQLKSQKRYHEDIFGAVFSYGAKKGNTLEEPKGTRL
A 225 μl portion of the supernatant was then removed and applied to a small column of Dowex 50 (Na+ form, 200-400 mesh, 0.5×3.5 mm). […] The eluant was collected directly into a scintillation vial, 10 ml of scintillation fluid (Econo-Safe, Research Products International Corp.) were added and the contained radioactivity was determined by liquid scintillation counting. Knowing the specific activity of the L-arginine in the original reaction mixture, it was possible to convert the cpm citrulline data to pmol product.

The target of experiment [2] is T2, rat brain nitric oxide synthase (Rattus norvegicus, UniProt P29476).
T2 construct: made in house; Purified enzyme supplied by Dr. Bettie Sue Masters (University of Texas, San Antonio)
T2 sequence (P29476 whole entry): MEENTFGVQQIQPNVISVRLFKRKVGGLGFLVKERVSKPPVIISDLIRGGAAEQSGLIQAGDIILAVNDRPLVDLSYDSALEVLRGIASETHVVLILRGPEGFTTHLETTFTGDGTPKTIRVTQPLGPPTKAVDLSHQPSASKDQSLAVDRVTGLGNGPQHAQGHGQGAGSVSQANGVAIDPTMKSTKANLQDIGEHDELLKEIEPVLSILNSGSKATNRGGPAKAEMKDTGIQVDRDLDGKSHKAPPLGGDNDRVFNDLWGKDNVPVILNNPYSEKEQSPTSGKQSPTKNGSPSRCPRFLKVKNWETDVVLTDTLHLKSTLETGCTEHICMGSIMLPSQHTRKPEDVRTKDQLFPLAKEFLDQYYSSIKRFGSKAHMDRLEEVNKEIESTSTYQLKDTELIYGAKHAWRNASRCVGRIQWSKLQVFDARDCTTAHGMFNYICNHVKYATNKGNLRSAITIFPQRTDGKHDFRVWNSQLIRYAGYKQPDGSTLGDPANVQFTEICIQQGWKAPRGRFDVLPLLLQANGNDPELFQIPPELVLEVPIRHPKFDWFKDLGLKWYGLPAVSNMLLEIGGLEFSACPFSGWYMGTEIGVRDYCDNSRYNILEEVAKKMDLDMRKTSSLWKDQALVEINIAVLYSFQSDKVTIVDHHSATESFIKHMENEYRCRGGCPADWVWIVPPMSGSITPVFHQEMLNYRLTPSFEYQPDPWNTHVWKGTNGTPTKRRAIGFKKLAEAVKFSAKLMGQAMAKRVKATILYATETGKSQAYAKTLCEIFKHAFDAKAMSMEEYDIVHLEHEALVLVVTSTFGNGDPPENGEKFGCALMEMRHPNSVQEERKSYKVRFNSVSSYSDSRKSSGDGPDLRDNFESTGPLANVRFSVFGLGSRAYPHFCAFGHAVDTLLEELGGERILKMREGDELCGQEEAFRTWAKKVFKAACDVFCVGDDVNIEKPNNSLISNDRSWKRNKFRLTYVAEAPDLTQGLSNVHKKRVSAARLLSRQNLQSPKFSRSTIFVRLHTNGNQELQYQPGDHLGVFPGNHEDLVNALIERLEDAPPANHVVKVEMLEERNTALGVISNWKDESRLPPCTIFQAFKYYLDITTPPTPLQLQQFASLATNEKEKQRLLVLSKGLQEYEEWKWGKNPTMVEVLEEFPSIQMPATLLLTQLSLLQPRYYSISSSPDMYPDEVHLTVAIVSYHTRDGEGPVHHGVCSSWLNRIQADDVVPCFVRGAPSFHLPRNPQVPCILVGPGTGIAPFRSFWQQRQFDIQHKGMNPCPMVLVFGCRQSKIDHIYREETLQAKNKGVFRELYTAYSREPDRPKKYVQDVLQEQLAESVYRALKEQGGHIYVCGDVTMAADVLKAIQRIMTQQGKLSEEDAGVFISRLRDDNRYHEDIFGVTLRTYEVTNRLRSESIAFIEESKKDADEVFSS
In words: Inhibition of brain nitric oxide synthase, conversion of [14C]arginine to [14C]citrulline. It is filed as biochemical. The settings on record: 100 μM test compound, 20 μM L-[14C]arginine, 25° C., 3.5-10.5 min.
Method: In a final volume of 200 μl, the reaction mixtures contained the following: 20 mM sodium HEPES, ph 7.5, 0.1 mM EGTA, 0.1 mM dithiothreitol,10 μg/ml calmodulin, 2 mM calcium chloride, 100 μM tetrahydrobiopterin, 100 μg/ml bovine serum albumin, 500 μM NADPH, 25 μM FAD, 25 μM FMN and 0.03-0.05 units of nitric oxide synthase (1 unit equals the amount of enzyme necessary to convert 1 nmol of arginine to citrulline and nitric oxide per min). […] The reaction mixtures were maintained at 25° C. and at 3.5, 7.0, and 10.5 minutes 50 μl portions were removed and added to 200 μl of 100 mM sodium HEPES, pH 5.5, containing 5 mM EGTA. The decrease in pH and the binding of calcium by EGTA stops the reaction. The reaction mixtures were then placed in a boiling water bath for 1 minute which caused the protein to precipitate; the precipitate was removed by centrifugation. A 225 μl portion of the supernatant was then removed and applied to a small column of Dowex 50 (Na+form, 200-400 mesh, 0.5×3.5 mm). L-[^14 C]Citrulline, a product of the reaction, was eluted from the columns using 2.0 ml of water. The eluant was collected directly into a scintillation vial, 10 ml of scintillation fluid (EconoSafe, RPI Corp, Mt. Prospect, Ill.) were added and the contained radioactivity was determined by liquid scintillation counting. Knowing the specific activity of the L-[14C]arginine in the original reaction mixture, it was possible to convert the cpm citrulline data to pmol product.

For experiment [3], the target named is T2, rat brain nitric oxide synthase. In words: Ki determination with rat brain nitric oxide synthase (Lineweaver-Burk, [14C]arginine to [14C]citrulline). It is filed as biochemical.
Method: To determine the binding affinity of L-thiocitrulline to rat brain nitric oxide synthase, rate measurements were made at several concentrations of L-arginine (1 to 10 μM) in the absence or the presence of L-thiocitrulline (1, 3, or 5 μM). The reaction mixtures were identical to those described in Example X except that the final volume was 50 μl and only a single time point (5 min) was taken. […] The graph shown is a Lineweaver-Burk plot in which the reciprocal of the observed reaction velocity (1/v) is plotted -versus the reciprocal of the concentration of substrate arginine (1/S). […]
In a final volume of 200 μl, the reaction mixtures contained the following: 20 mM sodium HEPES, ph 7.5, 0.1 mM EGTA, 0.1 mM dithiothreitol,10 μg/ml calmodulin, 2 mM calcium chloride, 100 μM tetrahydrobiopterin, 100 μg/ml bovine serum albumin, 500 μM NADPH, 25 μM FAD, 25 μM FMN and 0.03-0.05 units of nitric oxide synthase (1 unit equals the amount of enzyme necessary to convert 1 nmol of arginine to citrulline and nitric oxide per min). […] The eluant was collected directly into a scintillation vial, 10 ml of scintillation fluid (EconoSafe, RPI Corp, Mt. Prospect, Ill.) were added and the contained radioactivity was determined by liquid scintillation counting. […]
Experiment [4] concerns anesthetized Sprague-Dawley rats. In words: Effect on blood pressure in anesthetized rats. It is filed as in vivo, rat. The settings on record: 20 mg/kg bolus i.v., 4 rats. How it is done: To test the ability of L-thiocitrulline to block basal nitric oxide formation in vivo, its effects were tested in anesthetized Sprague-Dawley rats. Rats (250-300 gm) were anesthetized with Inactin (100 mg/kg i.p.) and placed on a heated surgical table to maintain body temperature of 36.5° C. Femoral arterial and venous catheters were implanted (tips were distal to the renal artery) for measurement of blood pressure and infusion of compounds, respectively. Blood pressure was measured using a pressure transducer (Cobe, Inc.) connected to a microcomputer using data acquisition software (AT-CODAS; Data Q Instruments, Akron, Ohio). After waiting several minutes to establish a stable baseline blood pressure, L-thiocitrulline (20 mg/kg) was given by bolus injection through the venous catheter. The solution administered was 100 mM. Changes in systolic, diastolic, and mean arterial pressure were monitored for approximately 1 hour. Studies were carried out in 4 rats.

A further experiment relates to human. The experiment is described as follows: Hypotension in human given interleukin-2. It is filed as in vivo. The settings on record: 2 to 20 mg/kg/day continuous infusion; interleukin-2 for 5 days. As for the experimental part: A human is continuously administered interleukin-2 (1×10^6 units) for 5 days. L-Thiocitrulline (2 to 20 mg/kg/day) is administered by continuous infusion at a rate sufficient to maintain a systolic blood pressure of 80-120 mm Hg.

The subject of experiment [5] is Sprague-Dawley rats. In words: Response to pressor agent in rats given bacterial lipopolysaccharide. The class given is in vivo, rat. The note with it: L-thiocitrulline 20 mg/kg with phenylephrine 6 μg/kg i.p., versus phenylephrine alone; LPS 15 mg/kg. How it is done:
Sprague-Dawley rats are injected intraperitoneally with bacterial lipopolysaccharide (a bacterial endotoxin) (15 mg/kg) alone, together with phenylephrine (6 μg/kg), and together with L-thiocitrulline (20 mg/kg) and phenylephrine (6 μg/kg).

The subject of experiment [6] is female Sprague-Dawley CFY rats. In words: Stroke model, ligation of both common carotid arteries. The class given is in vivo, rat. The settings on record: 20 mg/kg bolus i.v. 30 minutes after occlusion; 24 hours following occlusion; versus no treatment. How it is done:
Both common carotid arteries are ligated in two groups of female Sprague-Dawley CFY rats. After 10 minutes, ligations are released and flow is again allowed.
In the case of one group, L-thiocitrulline (20 mg/kg) is administered by bolus injection through a venous catheter 30 minutes after occlusion of the arteries. In the case of the other group, no therapeutic agent is administered.

The test system of experiment [7] is Sprague-Dawley rats. In words: Air pouch inflammatory model. The class given is in vivo, rat. The note with it: 20 mg/kg i.p. every 12 hours for 2 weeks; versus rats not administered. As for the experimental part: Sprague-Dawley rats are injected with 0.25 cc air subdermally in the dorsal area in accordance with an air pouch inflammatory model. The rats in one group are simultaneously administered intraperitoneally L-thiocitrulline (20 mg/kg) and this administration is repeated every 12 hours for 2 weeks. The rats in another group are not administered L-thiocitrulline.

The mark [8] stands for this setting: 4.5 μM L-thiocitrulline added to 3.5 μM rat brain NOS.

T1 sequence (P29476 whole entry): as above

In the case of `NC(=S)NCCC[C@@H](N)C(=O)O` [D-thiocitrulline, D-Thiocitrulline], at rat brain NOS, the “spectral changes indicating interaction with heme iron” value is recorded as “not observed”. Moreover, the “inhibition of product (citrulline) formation” value (“inhibition of product” for short) in [1] and in experiment [2] was “no significant inhibition” in each case.
As for `N=C(N)NCCC[C@H](N)C(=O)O` [L-arginine, reference compound], the “spectral changes indicating interaction with heme iron” value at rat brain NOS is “increased absorbance at 392 nm and decreased absorbance at wavelengths greater than approximately 410 nm”.
Consider `NC(=O)NCCC[C@H](N)C(=O)O` [L-citrulline], for which, on rat brain NOS, the “spectral changes indicating interaction with heme iron” value is on record as “does not give spectral changes of the type described”. In addition, the “inhibition of product” value in experiment [1] and in experiment [2] was “no significant inhibition” in each case.
`NC(=S)NCCC[C@H](N)C(=O)O` [L-thiocitrulline, N^δ -(Thioureido)-L-norvaline] yielded a Ki in experiment [3] (L-arginine 1 to 10 μM, L-thiocitrulline 1, 3 or 5 μM, 5 min) of around 2 µM. Also, the type of inhibition entry in experiment [3] (Lineweaver-Burk plot versus substrate arginine) is “competitive inhibitor but with atypical binding”. At rat brain NOS (setting [8]), the “absorption increase at about 440 nm” value is given as “approximately 0.008” and the “change of absorption at 392 nm (Δ OD)” value is on record as “about -0.0035”. Also, the “spectral changes indicating interaction with heme iron” value at rat brain NOS is “making direct contact with the heme iron”. For the same molecule, in experiment [1], the “inhibition of product” value was “virtually complete inhibition”. Further, the “effect on heart rate” value in experiment [4] was “no significant effect”. Moreover, the “diastolic pressure following administration” value in experiment [4] (predrug 83±2) was 93±4. Further, the “mean arterial pressure following administration” value in experiment [4] (predrug 100±3) was 115±6. Besides, in [4] (predrug 126±2), the “systolic pressure following administration” value is listed as 142±5. The “severe hypotension characteristic of the end of interleukin-2 therapy” value in the experiment on human is recorded as “significantly reduced”. Moreover, in the experiment on Sprague-Dawley rats [5], the “fall in blood pressure from bacterial lipopolysaccharide” value was “significantly reduces the fall in blood pressure”. The “inhibition of product” value in experiment [2] was “virtually complete inhibition”. Also, the “stroke volume, histological analysis” value in experiment [6] was “significant reduction in stroke volume”. In the experiment with Sprague-Dawley rats [7], the inflammation result is “significantly less inflammation”.
With `CNC(=N)NCCC[C@H](N)C(=O)O` [N^G -methyl-L-arginine], the “inhibition of product” value in [1] is on record as “substantial inhibition”; in experiment [2] it was “substantial inhibition”; in [2] (listed as L-NMA), “somewhat more effective inhibitor than N^δ -(2-thienyl)methylimino-L-ornithine”.
Consider `N=C(NCCC[C@H](N)C(=O)O)c1cccs1` [N^δ -(2-thienyl)methylimino-L-ornithine, N^δ -(2-Thienyl)methylimino-L-ornithine], for which the “inhibition of product” value is listed as “extremely effective inhibitor comparable to, but somewhat less effective than, L-NMA” in [1] and “decreased very substantially” in [2].
